4 compounds from patent US10716769B2 (GUANGZHOU JTREAT BIOSCI. LTD., priority 2015, dated 2020) can be followed below.

The test system of this assay is human umbilical vein endothelial cell line (ECV304). In words: MTT in vitro cell inhibition. The note with it: 3 days. Type of assay: cell-based. The text has this: An effective amount of the above compounds and/or the compositions containing the same used as an active ingredient have an effect on inhibiting the tumor cells. The present invention detects the inhibitory effect of the hydroxy-substituted benzophenone compounds on the proliferation of the in vitro cultured human tumor cells by the methylthiazolyl tetrazolium method.
The method is used to detect cell viability. […] Particles can be dissolved by dimethyl sulfoxide (DMSO) isopropyl alcohol or 10% acidified SDS (sodium dodecyl sulfate), and a microplate reader is used to measure the OD value at A570 wavelength, which indirectly reflects the number of live cells. The method is used for detection of the cytokines bioactivity, as well as anti-tumor drugs and tumor radiosensitivity and cytotoxicity test, and has the characteristics of being simple, fast, economical, sensitive and accurate and having good reproducibility and no need to use radionuclides. This method has been widely used in screening preclinical anticancer drugs and detecting the drug sensitivity of fresh tumor cells. The method is as below:
(1) The tumor cell suspension prepared by 0.25% of trypsin digestion and adjusted to a cell concentration of 10^5/ml with RPMI1640 containing 10% fetal calf serum is added to a 96-well plate with 100 μl for each well, cultured 24 hours, and then different dosages of drugs are added with 100 μl/well, for which, the negative control groups, positive control groups and withering wells are set, and 4 parallel wells are set for each group.
(2) They are continually cultured in incubator containing 5% of CO2 at 37° C. for 24 to 48 hours. MTT solution (5 g/L) is added to each well before the termination of the experiment. The OD value at A570 nm is detected by microplate reader. The OD value at A570 of the negative group without the addition of drugs is taken as a control. The cell survival rate and cell inhibition rate of drugs are calculated according to the following formula: Cell survival rate=(OD value of test group/OD value of control group)×100% Cell inhibition rate (%)=(OD value of the control group−OD value of the test group/(OD value of the control group−OD value of the blank group)
1. Tumor cell lines: human glioma cell line (U251), human colon cancer cell line (LOVO), human hepatoma cell line (HepG2), human lung cancer cell line (PC84045), human endometrial carcinoma cell line (JEC), human renal carcinoma (GRC), human gastric cancer cell line (MCG804), human cervical cancer cell line (HeLa), human hepatocellular carcinoma cell line (BEL-7402) and human umbilical vein endothelial cell line (ECV304) purchased from Animal Experimental Center of Zhongshan Medical College, and preserved by the present laboratory.
The tumor cell lines are cultured in RPMI-1640 medium containing 15% of the newborn bovine serum in a conventional manner, placed in the humidification incubator containing 5% of CO2 for being cultured at 37° C., and are observed for growth by an inverted microscope. A subculture is conducted every about 3-5 days, the cells in logarithmic growth phase are adopted to be digested with 0.25% of trypsin, and the serum-free RPMI-1640 medium is used for culturing the cell suspension; the blood counting plate makes counting, the trypan blue exclusion tests the cell activity, and the cell viability>95% is used for formal tests.
Liquid preparation: the compounds are labeled with the codes respectively, DMSO is used to dissolve each compound, the bacterial filter is used to remove bacteria, and each compound is prepared into 10^−4 g/ml, 10^−5 g/ml, 10^−6 g/ml and preserved at 4° C. for use. […]

`O=C(c1cc(O)c(O)cc1O)c1ccc(O)c(O)c1O` returned an Inhibitory rate % (ECV304, 10^−4 g/ml) of 72.41%; an Inhibitory rate % (ECV304, 10^−5 g/ml) of 53.62%; an Inhibitory rate % (ECV304, 10^−6 g/ml) of 30.75%.
Regarding `O=C(c1ccc(O)c(O)c1O)c1ccc(O)c(O)c1O` [2,3,4,2′,3′,4′-hexahydroxybenzophenone], the Inhibitory rate % (ECV304, 10^−4 g/ml) is on record as 79.37%. Besides, the “Inhibitory rate, sensitivity class” value is reported as “insensitive (<30% means insensitive)” (ECV304, 10^−5 g/ml) and “insensitive (<30% means insensitive)” (ECV304, 10^−6 g/ml).
Consider `O=C(c1ccccc1)c1ccc(O)c(O)c1O` [2,3,4-trihydroxybenzophenone], for which the Inhibitory rate % by setting is: (ECV304, 10^−4 g/ml) 89.63%; (ECV304, 10^−5 g/ml) 45.81%. Moreover, the “Inhibitory rate, sensitivity class” value (ECV304, 10^−6 g/ml) was “insensitive (<30% means insensitive)”.
Where the note is “ECV304, 10^−4 g/ml”, `O=C(c1ccc(O)cc1O)c1ccc(O)cc1O` [2,4,2′,4′-tetrahydroxybenzophenone] showed an Inhibitory rate % of 42.13%. Further, the “Inhibitory rate, sensitivity class” value by setting is: (ECV304, 10^−5 g/ml) “insensitive (<30% means insensitive)”; (ECV304, 10^−6 g/ml) “insensitive (<30% means insensitive)”.
